# “Also recorded” adds a separate entry of the source.
# Experiments:
# bak = assay: EPO induced gene expression in PC12 cells (quantitative RT-PCR); format: cell-based, rat; conditions: PC-12 cells
# Experimental: (§1) PC-12 cells (from a rat Pheochromocytoma) were cultured on poly-D-Lysine coated tissue culture plastic in DMEM containing 10% FBS and 5% Horse serum. To induce the neuronal phenotype in PC-12 cells, serum was removed and the cells were treated with NGF (50 ng/ml). Cells were grown for 7 days in the presence of the NGF then used for experiments.
# (§2) PC-12 cells were cultured as described in Example 1 in a 10 cm poly-D-lysine coated tissue culture dish. Cells were incubated in the presence of 1 U/ml of EPO for 24 hr. Total RNAn was then isolated using a Qiagen RNAeasy mini prep kit and used for RT-PCR.
# (§3) Real time reverse transcription and PCR were performed in a single reaction using a light cycler and an RNA amplification kit from Roche Molecular Biochemicals. RNA was quantitated and added in equal amounts to reaction mix that includes the dsDNA specific dye SYBR green I. Specific PCR reaction products are quantitated by detecting the amount of fluorescence in the reaction at each PCR cycle. Final analysis was performed using the data analysis software included with the light cycler instrument.
# bclXL = assay: as above; format: cell-based, rat; conditions: PC-12 cells
# Experimental: as §1, §2, §3
# PC-12 cells = assay: Glutamate toxicity in PC-12 cells (trypan blue exclusion); format: cell-based, rat; conditions: for protection against glutamate-induced cell death (in words): pre-treatment 24 hr, 200 μM glutamate
# Experimental: PC-12 cells (from a rat Pheochromocytoma) were cultured on poly-D-Lysine coated tissue culture plastic in DMEM containing 10% FBS and 5% Horse serum. To induce the neuronal phenotype in PC-12 cells, serum was removed and the cells were treated with NGF (50 ng/ml). Cells were grown for 7 days in the presence of the NGF then used for experiments. PC-12 cells were cultured as described above. 24 hr prior to insult, cells were treated with rhEPO at concentrations ranging from 1 pm to 1 nm. On the day of the experiment, cells were exposed to 200 μM glutamate for 30 min. Cells were then washed 2 times with fresh media to remove the glutamate and cultured in fresh media containing NGF but no EPO. After 24 hr cells were assayed for viability using a trypan blue exclusion assay. […] Cells were then washed gently with PBS, then fixed with 10% formalin. Cell viability was determined by counting the total number of cells vs. the number of trypan blue positive (dead) cells.
# [1] = test system: rat cerebral cortical cultures; assay: Neurite outgrowth assay (MAP2-FITC immunofluorescence), cortical cultures; format: cell-based
# Excerpt: Dissociated hippocampal and cortical cell cultures were established from embryonic day 18 rat fetuses as previously described (Mattson et al., 1994). Briefly, fetuses were removed via cesarean section from pregnant moms (Sprague-Dawley) anesthetized with halothane according to the AVMA Panel on Euthanasia. Pups were decapitated and the brains were removed and placed in HEPES-buffered Hank's Balanced Salt solution (HBSS; Gibco). The hippocampi and cortices were dissected out and pooled according to tissue-type. Tissue was trypsinized for 15 min (1 mg/ml trypsin-HBSS; Worthington), rinsed with fresh HBSS, incubated in trypsin inhibitor (1 mg/ml; Sigma) for 5 min, rinsed again with fresh HBSS and then triturated in 1 ml fresh HBSS with a fire-polished glass pipette. Dissociated cells were seeded at 30,000 cells/well onto poly-D-lysine coated 96-well plates (Collaborative BioScience). Each well contained 100 μl of Eagle's Minimal Essential Media (MEM; Gibco) supplemented with 26 mM NaHCO3 (Sigma), 56 mM glucose (Sigma), 15 mM KCl (Sigma), 1 mM sodium pyruvate (Sigma), 1.1 mM L-glutamine (Sigma), 10% (v/v) heat-inactivated fetal bovine serum (Hyclone), and 0.001% gentamicin sulfate (Sigma) (pH 7.4). Cells were allowed to attach for 24 h in a humidified 37° C. 5% CO2 incubator before experimental treatment. The culture media was aspirated and exchanged with fresh media every three days.
# Twenty-four hours after plating, cultures were treated with vehicle (PBS+0.1% BSA), 100 ng of various growth factors (brain derived neurotrophic factor (BDNF; Promega), glial-derived neurotrophic factor (GDNF; Promega), nerve growth factor (NGF; Boehringer Mannheim), basic fibroblast growth factor (bFGF; Boehringer Mannheim), insulin-like growth factor-1 (IGF-1; Boehringer Mannheim), neurotrophin-3 (NT3; Calbiochem), neurotrophin-4 (NT4; Calbiochem), ciliary neurotrophic factor (CNTF; Calbiochem), epidermal growth factor (EGF; Calbiochem), vascular endothelial growth factor (VEGF; Calbiochem)), or rhEPO (prepared same as above; 10 fM-10 nM)). Each treatment condition was run in quadruplicate or octuplicate. On the third day in culture, the media was aspirated off and replaced with fresh media and test compound. At one week in culture, the cells were fixed with 10% phosphate-buffered formalin for 15 min, then rinsed with DPBS (Sigma) and placed in blocking serum for 30 min (horse serum; 1:50 dilution in DPBS; Vector Labs). Cultures were rinsed again with DPBS and then incubated in primary antibody for 2 hr (microtubule-associated protein-2 (MAP-2) is a selective marker for dendritic processes; anti-mouse monoclonal (Chemicon); 1:1000 dilution of MAP-2 in antibody diluent (Zymed)). Negative control wells were incubated in antibody diluent alone. Background signal was determined by blank wells (cell-free) incubated with or without antibody. Cultures were rinsed again with DPBS and then placed in fluorescein for 1 hr (FITC; anti-mouse IgG; rat adsorbed; 1:50 dilution in DPBS; Vector Labs). Cultures were rinsed a final time with DPBS and then the plates were read on a Cytofluor 4000 fluorescence plate reader. Neurite outgrowth was expressed as percent change from control (vehicle; mean fluorescence±SD).
# Dissociated hippocampal and cortical cell cultures were established from embryonic day 18 rat fetuses as previously described (Mattson et al., 1994). Briefly, fetuses were removed via cesarean section from pregnant moms (Sprague-Dawley) anesthetized with halothane according to the AVMA Panel on Euthanasia. Pups were decapitated and the brains were removed and placed in HEPES-buffered Hank's Balanced Salt solution (HBSS; Gibco). The hippocampi and cortices were dissected out and pooled according to tissue-type. […]
# [2] = Plasma determinations (EPO ELISA) in ischemia studies; format: in vivo, rat
# Excerpt: Plasma Determinations: Blood samples were collected from each rat via the orbital sinus at the time of sacrifice. Plasma was separated out, frozen and analyzed by EPO ELISA for determination of plasma concentration (U/ml).
# [3] = 1 nm EPO for 24 hr (FIG. 3 legend)
substance,measurement,setting,value
"EPO: purified, recombinant human EPO (rhEPO), formulated and distributed under the trademarks EPREX, ERYPO or PROCRIT",decrease in the expression of the pro-apoptotic Bak,bak; [3],greater than 5 fold
same,"decrease in the expression of the pro-apoptotic gene, bak",bak; EPO 1 U/ml for 24 hr,5 fold
same,"increase in the expression of the anti-apoptotic gene, bclXL",bclXL; [3],6 fold
same,"increase in the expression of the anti-apoptotic gene, bclXL",bclXL; EPO 1 U/ml for 24 hr,6 fold
same,"cell survival, Trypan Blue exclusion assay","PC-12 cells; 1 to 10 pm given 24 hours prior to glutamate (200 um), p<0.001",significantly increased cell survival
same,peak concentration for the neuroprotective effect,PC-12 cells; glutamate toxicity,10 pm
same,neuroprotective effect at 1 nm,"PC-12 cells; glutamate toxicity, 1 nm",no significant effect
same,dose response curve for the neuroprotective effect,"PC-12 cells; glutamate toxicity, protection decreasing above 10 pm",bi-phasic; also recorded: decreased at higher doses
same,protection against glutamate-induced cell death (in words),PC-12 cells,significant decrease in cell death
same,protection against glutamate-induced cell death (in words),PC-12 cells; listed as rhEPO,protects rat PC12 cells against glutamate-induced cell death
same,neurite outgrowth (in words),[1],significant increase in neurite outgrowth; also recorded: promotes neurite outgrowth
same,concentration of maximal neurite outgrowth promoting activity,[1]; concentration dependent,maximal activity observed at pM levels
same,ability to increase neurite outgrowth compared to known growth factors,[1]; growth factors 100 ng,greater than or equal to that of known growth factors; also recorded: superior in inducing neurite outgrowth relative to the majority of known growth factors
same,neurite outgrowth response over control,"[1]; rhEPO 10 fM-10 nM, one week in culture",15–29%
same,plasma concentrations (terminal),"[2]; Study I, continuous infusion",correlated with the protective effect
same,plasma concentrations (terminal),"[2]; Study II, single iv bolus 1000, 2500 or 5000 U/kg",low

# From US7259146B2, “Neuroprotective peptides” (Ortho-McNeil Pharmaceutical, Inc., priority 2000, dated 2007)
